Experimental findings from patent publication US8609655B2, “Calcimimetic compound for use in the treatment of epithelial injury” (Amgen Inc., priority 2008, dated 2013) are described below.

Each structure is given as a SMILES string.

One data set relates to ileal villi. The data set can be described thus: Ischemic injury and Trypan Blue exclusion in ileal villi. The class given is cell-based, rat. To be noted: 5 min of 100 nM compound A; 30 min 100% N2; without calcimimetic greater than 60% uptake. How it is done: Individual villi were transferred to the stage of an inverted microscope where they were perfused with 37° C. HEPES Ringer solution that was bubbled with 100% O2. After the 5 minute equilibration period villi were exposed to a HEPES Ringer solution that had been bubbled with 100% N2. In one series Trypan Blue a non membrane permeant dye used for assessment of membrane integrity was added to the bath (0.1 mM Trypan Blue concentration dissolved directly into the bath solution, either 100% O2 or 100% N2). Images were then recorded at sequential time points using DIC optics at 60× Magnification using a Cooled CCD camera and Metafluor Image acquisition and analysis software. Final data was acquired at 30 min from start of perfusion for all groups. The number of Trypan blue positive cells were counted and a number recorded for each villi under each condition. After 30 minutes of exposure to each experimental solution the number of Trypan Blue positive cells was recorded from a blinded observer. The final number of positive cells for each villi was recorded. The data for each villi with a minimum of 7 cells per villi were then pooled and recorded. A numeric mean was then given for the summation of all the cellular data from each villi and from each animal. For the studies presented there were 7 cells per villi, 5 villi per animal and 5 animals in each group. […]

The test system of another data set is isolated ileal villi. The data set can be described thus: Ischemic injury (100% N2) and intracellular calcium (FLUO-4) in isolated ileal villi. The format is cell-based. To be noted: 5 min exposure to 100 nM compound A; rat ileal villi; without calcimimetic sustained increase greater than 200% of initial value. How it is done: Male (Casr^+/+;Gcm2^−/−) or CaSR knockout (Casr^−/−;Gcm2^−/−) mice weighing 22-27 grams (upper panel) or male Sprague-Dawley rats weighing 220-275 grams (lower panel) were allowed free access to water and food prior to experimentation. The animals were exposed to an overdose of isofluorane and the ileum was removed. The ileum was then cut into 4 cm long sections and each section was placed in EDTA (20 mM) to isolate individual villi for 20 minutes at 37° C. After this digestion period the villi were placed in a HEPES-Ringer Solution that was bubbled with 100% O2 and were kept in this solution at 4° C. until use. All mice were generated at Yale University from a breeding colony. Male Sprague-Dawley rats were purchased from Charles River Laboratories Inc. (Wilmington, Mass.). […]
Following isolation individual villi were placed on coverslips and loaded with the calcium indicator dye FLUO4-AM (10 μM) (Invitrogen, Oregon USA) for 15 minutes. […] Images were recorded for 20-30 minutes using DIC optics at 60× Magnification with a Cooled CCD camera and Metamorph Image acquisition and analysis software.
The increase in intracellular Ca^2+ is plotted as arbitrary fluorescent units (AFU) with higher numbers of AFU representing an increase in intracellular Ca^2+. The data for each villi with a minimum of 7 cells per villi were then pooled and recorded. […]

Another data set deals with colonic crypts. The data set can be described thus: Ischemic injury (100% N2) and intracellular calcium in colonic crypts. The format is cell-based. To be noted: 5 min prepulse with 100 nM compound A; rat colonic crypts.
Data set [1] can be described thus: Plasma level of calcimimetic in cutaneous wound study. The class given is in vivo, mouse. To be noted: Compound B 3 mg/kg daily, female balb/c mice, over the course of the study.
In data set [2] the test system is wound injury RNA biomarkers (wound tissue). The data set can be described thus: Wound injury RNA biomarkers by quantitative PCR in full-thickness cutaneous wound injury model. The class given is in vivo, mouse. To be noted: 3 mg/kg, drug over vehicle, n=5. As for the experimental part:
See Zoog S J et al. Cytometry A. (2009) March; 75(3): 189-98. The impact of calcimimetic treatment on gene mRNA biomarkers was assessed by quantitative PCR. For wound injury RNA biomarker exploration, female balb/c mice were randomly divided and treated with Compound B (3 mg/kg, n=5) or vehicle (20% Captisol in water, n=5) the day before cutaneous wounding and each subsequent day after until the termination of the studies. All mice received a 3 mm diameter full-thickness punch wound on day zero. On day 1 and day 3 post-injury, a 6 mm diameter skin biopsy was made over the original 3 mm wound and the wound tissue collected for RNA analysis. RNA was isolated using the Trizol reagent (Invitrogen) following manufacturer's instruction. 10 ng of total RNA was added to a single well at the final volume of 10 ul in 1×ABI (Applied Biosystems) Taqman qRT-PCR mixture and run on an ABI 7900 HT Real Time PCR system. For data analysis, the gene expression profile of each sample was first determined based on a control gene, Hprt1, using ABI SDS2.1 software. The signal of each sample was normalized further with Actb, Gapdh, Hprt1, and Rpl27. The biomarkers of wound injury, inflammation and repair that were dynamically affected by Compound B on day 1 and day 3 compared to vehicle control are shown in Table 2. Calcimimetic Compound B affected inflammatory genes, and genes involved in remodeling and repair. Specifically, key inflammatory cytokines such as IL-1a and TNF that may promote cell death were affected by Compound B. Genes involved in inflammation and repair that were affected included: tryptase, TIMP-3, and MMP13. Genes involved in promoting cell survival included: VEGFa, TGFb1, eNOS, and PDGFRb. Immune cell related genes included: M-CSF, TLR-7 and CD3. Other relevant genes included: ITGA3 and PRG-1. […] Table 2 represents the fold increase of drug-induced quantitative change in the gene over vehicle as determined by PCR analysis (n=5 in each drug or vehicle treated cohort).

The next data set relates to serum total calcium. The data set can be described thus: Serum total calcium in cutaneous wound study. The format is in vivo, mouse. To be noted: Compound B 3 mg/kg daily, female balb/c mice; vehicle 10.2-10.9 mg/dL.

For `COc1cccc([C@@H](C)NCCCc2ccccc2Cl)c1` [Compound A, 3-(2-chlorophenyl)-N-((1R)-1-(3-(methyloxy)phenyl)ethyl)-1-propanamine], the “cellular uptake of Trypan Blue” value in the data set with ileal villi is “prevented uptake of Trypan Blue”. For the same compound, the “change in intracellular calcium following exposure to 100% N2” value with isolated ileal villi and with colonic crypts was “no increase in calcium” in each case.
With `COc1ccc(CNC(C)c2ccccc2)cc1-c1ccc(C(F)(F)F)cc1` (centres unmarked) [Compound B, N-((6-(methyloxy)-4′-(trifluoromethyl)-1,1′-biphenyl-3-yl)methyl)-1-phenylethanamine], in data set [1], the average plasma level fell in the range of 20 to 36 ng/mL. In data set [2] (Day 1 post-injury), the “Fold Increase (C/V) CD3 RNA” value is listed as 2.90 fold, the “Fold Increase (C/V) IL-1a RNA” value worked out at 1.78 fold, the “Fold Increase (C/V) ITGA3 RNA” value was found to be 4.89 fold and the “Fold Increase (C/V) M-CSF RNA” value amounted to 2.13 fold. Further, in data set [2] (Day 1 post-injury), the “Fold Increase (C/V) MMP13 RNA” value was 2.78 fold, the “Fold Increase (C/V) PDGFRb(CD140) RNA” value came out at 0.67 fold, the “Fold Increase (C/V) PRG-1 RNA” value amounted to 3.03 fold and the “Fold Increase (C/V) TGFB1 RNA” value is recorded as 4.17 fold. In data set [2] (Day 1 post-injury), the “Fold Increase (C/V) TIMP-3 RNA” value was 4.48 fold, the “Fold Increase (C/V) TLR-7 RNA” value is 2.20 fold, the “Fold Increase (C/V) TNFR(p75) RNA” value turned out to be 1.62 fold and the “Fold Increase (C/V) TNFalpha RNA” value is given as 1.26 fold. In addition, in data set [2] (Day 1 post-injury), the “Fold Increase (C/V) Tryptase b2 (MCP-6) RNA” value was 1.02 fold, the “Fold Increase (C/V) VEGFa RNA” value is 1.53 fold and the “Fold Increase (C/V) eNOS RNA” value is recorded as 5.41 fold. Further, in data set [2] (Day 3 post-injury), the “Fold Increase (C/V) CD3 RNA” value was 0.88 fold, the “Fold Increase (C/V) IL-1a RNA” value was 3.44 fold, the “Fold Increase (C/V) ITGA3 RNA” value is 1.78 fold and the “Fold Increase (C/V) M-CSF RNA” value was found to be 2.13 fold. In data set [2] (Day 3 post-injury), the “Fold Increase (C/V) MMP13 RNA” value is 1.90 fold, the “Fold Increase (C/V) PDGFRb(CD140) RNA” value is listed as 1.42 fold, the “Fold Increase (C/V) PRG-1 RNA” value is 4.12 fold and the “Fold Increase (C/V) TGFB1 RNA” value worked out at 0.92 fold. In data set [2] (Day 3 post-injury), the “Fold Increase (C/V) TIMP-3 RNA” value worked out at 1.62 fold, the “Fold Increase (C/V) TLR-7 RNA” value turned out to be 2.39 fold, the “Fold Increase (C/V) TNFR(p75) RNA” value came out at 1.62 fold and the “Fold Increase (C/V) TNFalpha RNA” value was determined as 3.83 fold. For the same compound, in data set [2] (Day 3 post-injury), the “Fold Increase (C/V) Tryptase b2 (MCP-6) RNA” value came out at 0.95 fold, the “Fold Increase (C/V) VEGFa RNA” value is 0.61 fold and the “Fold Increase (C/V) eNOS RNA” value came to 0.46 fold. The “serum total calcium level” value in the data set on serum total calcium lay in the range of 7.21 to 7.9 mg/dL.
